In publication PMC11763590, “Fluorescence Polarization Immunoassay for Rapid, Sensitive Detection of the Herbicide 2,4-Dichlorophenoxyacetic Acid in Juice and Water Samples” (Biosensors, 2025) one finds Kd data, which are given here for two molecules.

This assay addresses monoclonal antibody against 2,4-D (MAb). In words: fluorescence polarization titration of tracer with antibody. In kind it is binding. For orientation: Polarisation of emitted light reports the rotation of a fluorescent probe.

Regarding `O=C(COc1ccc(Cl)cc1Cl)NCCCCNC(=S)Nc1ccc(-c2c3ccc(=O)cc-3oc3cc(O)ccc23)c(C(=O)O)c1` [2,4-D-BDF, 2,4-D-buthylenediamin fluoresceinthiocarbamyl], the Kd is 3.2 ± 0.5 nM.
Under `O=C(COc1ccc(Cl)cc1Cl)NCC(=O)Nc1ccc(-c2c3ccc(=O)cc-3oc3cc(O)ccc23)c(C(=O)O)c1` [2,4-D-GAF, 2,4-D-glycine aminofluorescein] stands 3.7 ± 0.6 nM.

What is called Kd is the constant that tells how readily two partners part at equilibrium.
